Test results reported in US20250195393A1, “COSMETIC COMPOSITION COMPRISING SKIN ACTIVE AGENT” (priority 2023, published 2025).
Where two headings read alike, the source gives them in different places.

What was measured:
[1] = Hansen Solubility Parameters; cited from earlier work
[2] = Hansen Solubility Parameters (D, P, H) and distance Ra of solvents (b)
From the text: The oil phase of the emulsion includes the hydrophobic polymer of (a) dissolved in one or more solvents capable of solubilizing the hydrophobic polymer. The one or more solvent may include one or more solvents used to generate or solubilize the hydrophobic polymer, e.g., 2,2,4-trimethyl-1,3-pentanediol-monoisobutyrate. The one or more solvents may be a single solvent or a plurality of solvents.
[formula] • wherein • D1 is 16.8 MPa^0.5, • P1 is 4.8 MPa^0.5, and • H1 is 13.0 MPa^0.5.
In a preferred embodiment, the one or more solvents have a dispersion component (D), a polar component (P), a hydrogen bonding component (H), and a distance (Ra) of less than or equal to 9.9 MPa^0.5 per Hansen Solubility Parameters, wherein the distance (Ra) is defined by formula (I):
[formula] • wherein • D1 is 16.4 MPa^0.5, • P1 is 5.0 MPa^0.5, and • H1 is 11.7 MPa^0.5.
The solvent may be an oil. The term “oil” is intended to mean a non-aqueous compound, non-miscible in water, and liquid at 25° C. and atmospheric pressure (760 mmHg; 1.013×10^5 Pa). […] The solvents may include acetone. The solvents may include oleic acid. The solvents may include an oleic acid containing oil (such as a vegetable oil).

SMILES | D (dispersion component) [1] | H (hydrogen bonding component) [1] | P (polar component) [1] | Ra (Preferred Range) ([2]; distance per formula (I) with D1 16.4, P1 5.0, H1 11.7, preferred <= 9.9) | Ra (Allowable Range) ([2]; distance per formula (I) with D1 16.8, P1 4.8, H1 13.0, allowable <= 13.4) | Ra (Allowable Range) [2] | Ra (Preferred Range) [2]
CC(C)=O [Acetone] | 15.5 MPa^0.5 | 7 MPa^0.5 | 10.4 MPa^0.5 | 7.38 MPa^0.5 | 8.61 MPa^0.5 |  | 
CCO [Ethanol] | 15.8 MPa^0.5 | 19.4 MPa^0.5 | 8.8 MPa^0.5 |  |  | 7.81 MPa^0.5 | 8.67 MPa^0.5
CC(C)O [Isopropyl Alcohol] | 15.8 MPa^0.5 | 6.4 MPa^0.5 | 6.1 MPa^0.5 |  |  | 7.02 MPa^0.5 | 5.54 MPa^0.5
CCCCCCCCCCCCCC(=O)OC(C)C [Isopropyl Myristate] | 15.9 MPa^0.5 | 2.8 MPa^0.5 | 2.1 MPa^0.5 |  |  | 10.70 MPa^0.5 | 9.41 MPa^0.5
CCCCCCCCCCC(CO)CCCCCCCC (centres unmarked) [Octyldodecanol] | 16.1 MPa^0.5 | 7.4 MPa^0.5 | 2.2 MPa^0.5 |  |  | 6.33 MPa^0.5 | 5.17 MPa^0.5
CCCCCCCC/C=C\CCCCCCCC(=O)O [Oleic Acid] | 16 MPa^0.5 | 6.2 MPa^0.5 | 2.8 MPa^0.5 |  |  | 7.27 MPa^0.5 | 5.98 MPa^0.5
OCCOc1ccccc1 [Phenoxyethanol] |  |  |  |  |  | 2.55 MPa^0.5 | 3.88 MPa^0.5
